ChEMBL document CHEMBL3217535, “Synthesis and biological activity of furanylindazoles as inhibitors of hypoxia inducible factor (HIF)-1 transcriptional activity” (Medchemcomm, 2012)
The source made the active and inactive calls. No cut-off for these calls is given here.

Columns and labels:
[1] = Inhibition of HIF-1 (unknown origin) expressed in human HeLa cells after 12 hrs by HRE luciferase reporter gene assay; assay type: cell-based
Mus musculus [2] = test: In vivo inhibition of HIF1 transcriptional activity in nude mouse xenografted with human SUIT2/HRE-luc cells at 10 mg/kg, ip measured after 24 hrs by bioluminescence assay; assay type: functional, organism-based; set-up: dose 10 mg/kg
[3] = Drug uptake in cytoplasm of human NCI-H226 cells azide-Alexa 488-based fluorescent microscopy; assay type: ADME, cell-based
[4] = Drug uptake in cytoplasm of human RXF631L cells azide-Alexa 488-based fluorescent microscopy; assay type: ADME
[5] = Drug uptake in granular vesicle of human NCI-H226 cells azide-Alexa 488-based fluorescent microscopy; assay type: ADME, cell-based
[6] = Drug uptake in nucleus of human RXF631L cells azide-Alexa 488-based fluorescent microscopy; assay type: ADME
[7] = Drug uptake in granular vesicle of human RXF631L cells azide-Alexa 488-based fluorescent microscopy; assay type: ADME
[8] = Drug uptake in granular vesicle of human MKN1 cells azide-Alexa 488-based fluorescent microscopy; assay type: ADME, cell-based; conditions: mkn-1
[9] = Drug uptake in nucleus of human NCI-H226 cells azide-Alexa 488-based fluorescent microscopy; assay type: ADME, cell-based
[10] = Growth inhibition of human MKN7 cells by SRB assay; assay type: functional; conditions: MKN-7
[11] = Growth inhibition of human OVCAR3 cells by SRB assay; assay type: functional; conditions: OVCAR-3
KM12 = test: Growth inhibition of human KM12 cells by SRB assay; assay type: functional
NCI-H226 = test: Growth inhibition of human NCI-H226 cells by SRB assay; assay type: functional
HT-29 = test: Growth inhibition of human HT-29 cells by SRB assay; assay type: functional; conditions: HT-29, read-out: pGI50 (converted)
[12] = Growth inhibition of human HCT15 cells by SRB assay; assay type: functional; conditions: HCT-15
[13] = Growth inhibition of human HBC4 cells by SRB assay; assay type: functional; conditions: HBC4, read-out: pGI50 (converted)
[14] = Growth inhibition of human BSY1 cells by SRB assay; assay type: functional; conditions: BSY-1
St-4 = test: Growth inhibition of human St-4 cells by SRB assay; assay type: functional; conditions: St-4, read-out: pGI50 (converted)
[15] = Growth inhibition of human MKN45 cells by SRB assay; assay type: functional; conditions: MKN-45
SF-268 = test: Growth inhibition of human SF268 cells by SRB assay; assay type: functional; conditions: SF-268, read-out: pGI50 (converted)
NCI-H23 = test: Growth inhibition of human NCI-H23 cells by SRB assay; assay type: functional; conditions: NCI-H23, read-out: pGI50 (converted)
A549 = test: Growth inhibition of human A549 cells by SRB assay; assay type: functional
[16] = Growth inhibition of human MKN74 cells by SRB assay; assay type: functional; conditions: MKN-74, read-out: pGI50 (converted)
HCT-116 = test: Growth inhibition of human HCT116 cells by SRB assay; assay type: functional
MDA-MB-231 = test: Growth inhibition of human MDA-MB-231 cells by SRB assay; assay type: functional
U-251 = test: Growth inhibition of human U251 cells by SRB assay; assay type: functional
NCI-H522 = test: Growth inhibition of human NCI-H522 cells by SRB assay; assay type: functional
[17] = Growth inhibition of human OVCAR4 cells by SRB assay; assay type: functional; conditions: OVCAR-4, read-out: pGI50 (converted)
SNB-75 = test: Growth inhibition of human SNB75 cells by SRB assay; assay type: functional; conditions: SNB-75, read-out: pGI50 (converted)
[18] = Growth inhibition of human DMS273 cells by SRB assay; assay type: functional; conditions: DMS-273
[19] = Growth inhibition of human HBC5 cells by SRB assay; assay type: functional
[20] = Growth inhibition of human LOXIMVI cells by SRB assay; assay type: functional; conditions: LOX IMVI
[21] = Growth inhibition of human SF539 cells by SRB assay; assay type: functional; conditions: SF-539, read-out: pGI50 (converted)
[22] = Growth inhibition of human OVCAR5 cells by SRB assay; assay type: functional; conditions: OVCAR-5
ACHN = test: Growth inhibition of human ACHN cells by SRB assay; assay type: functional
DU-145 = test: Growth inhibition of human DU145 cells by SRB assay; assay type: functional; conditions: DU-145, read-out: pGI50 (converted)
NCI-H460 = test: Growth inhibition of human NCI-H460 cells by SRB assay; assay type: functional
Mus musculus [23] = test: In vivo inhibition of HIF1 transcriptional activity in nude mouse xenografted with human SUIT2/HRE-luc cells at 10 mg/kg, ip measured after 12 hrs by bioluminescence assay; assay type: functional, organism-based; set-up: dose 10 mg/kg
[24] = Growth inhibition of human OVCAR8 cells by SRB assay; assay type: functional; conditions: OVCAR-8
PC-3 = test: Growth inhibition of human PC3 cells by SRB assay; assay type: functional
[25] = Growth inhibition of human DMS114 cells by SRB assay; assay type: functional; conditions: DMS-114
[26] = Growth inhibition of human HCC2998 cells by SRB assay; assay type: functional; conditions: HCC 2998, read-out: pGI50 (converted)
[27] = Growth inhibition of human SF295 cells by SRB assay; assay type: functional; conditions: SF-295
SK-OV-3 = test: Growth inhibition of human SKOV3 cells by SRB assay; assay type: functional
MCF7 = test: Growth inhibition of human MCF7 cells by SRB assay; assay type: functional
[28] = Growth inhibition of human MKN28 cells by SRB assay; assay type: functional; conditions: MKN-28
[29] = Growth inhibition of human RXF631L cells by SRB assay; assay type: functional; conditions: for GI50: RXF 631
[30] = Growth inhibition of human SNB78 cells by SRB assay; assay type: functional; conditions: SNB-78, read-out: pGI50 (converted)
[31] = Growth inhibition of human MKN1 cells by SRB assay; assay type: functional; conditions: MKN-1, read-out: pGI50 (converted)

[N-]=[N+]=NCc1ccc(Cn2nc(-c3ccc(CO)o3)c3ccccc32)cc1
IC50 [1]: 0.7 µM

OCc1ccc(-c2nn(Cc3ccncc3)c3ccccc23)o1
IC50 [1]: 0.83 µM

OCc1ccc(-c2nn(Cc3ccc(F)cc3)c3ccccc23)o1
IC50 [1]: 0.53 µM

OCc1ccc(-c2nn(Cc3ccccc3Cl)c3ccccc23)o1
IC50 [1]: 0.65 µM

OCc1ccc(-c2nn(Cc3ccc(Cl)cc3)c3ccccc23)o1
IC50 [1]: 2.8 µM

COc1ccc(Cn2nc(-c3ccc(CO)o3)c3ccccc32)cc1
IC50 [1]: 0.97 µM

OCc1ccc(-c2nn(Cc3ccc(-c4ccccc4)cc3)c3ccccc23)o1
IC50 [1]: 3.3 µM

OCc1ccc(-c2nn(Cc3cccnc3)c3ccccc23)o1
IC50 [1]: 0.46 µM

OCc1ccc(-c2nn(Cc3c(F)c(F)cc(F)c3F)c3ccccc23)o1
IC50 [1]: 0.07 µM | inhibition (Mus musculus [2]): inactive

OCc1ccc(-c2nn(Cc3ccc(C(F)(F)F)cc3)c3ccccc23)o1
IC50 [1]: 9.4 µM

OCc1ccc(-c2nn(Cc3ccccn3)c3ccccc23)o1
IC50 [1]: 0.3 µM

C#CCNc1ccc(Cn2nc(-c3ccc(CO)o3)c3ccccc32)cc1
Drug uptake [3]: Active | Drug uptake [4]: Active | IC50 [1]: 0.61 µM | Drug uptake [5]: Not Active | Drug uptake [6]: Active | Drug uptake [7]: Active | Drug uptake [8]: Active | Drug uptake [9]: Active

OCc1ccc(-c2nn(Cc3ccccc3C(F)(F)F)c3ccccc23)o1
IC50 [1]: 13.9 µM

OCc1ccc(-c2nn(Cc3ccc(F)cc3F)c3ccccc23)o1
IC50 [1]: 0.31 µM

N#Cc1ccc(Cn2nc(-c3ccc(CO)o3)c3ccccc32)cc1
IC50 [1]: 0.27 µM

OCc1ccc(-c2nn(Cc3ccccc3F)c3ccccc23)o1
IC50 [1]: 0.26 µM

C#CCOCc1ccc(-c2nn(Cc3ccccc3)c3ccccc23)o1
IC50 [1]: 7 µM

OCc1ccc(-c2nn(Cc3cccc(F)c3)c3ccccc23)o1
IC50 [1]: 0.48 µM

O=Cc1ccc(-c2nn(Cc3ccccc3)c3ccccc23)o1
IC50 [1]: 9 µM

OCc1ccc(-c2nn(Cc3c(F)cccc3F)c3ccccc23)o1
GI50 [10]: 36.3 µM | GI50 [11]: 75.9 µM | GI50 (KM12): 79.4 µM | GI50 (NCI-H226): 0.0513 µM | GI50 (HT-29): > 100 µM | GI50 [12]: 41.7 µM | GI50 [13]: > 100 µM | GI50 [14]: 29.5 µM | GI50 (St-4): > 100 µM | GI50 [15]: 24 µM | GI50 (SF-268): > 100 µM | GI50 (NCI-H23): > 100 µM | GI50 (A549): 66.1 µM | GI50 [16]: > 100 µM | GI50 (HCT-116): 58.9 µM | GI50 (MDA-MB-231): 25.1 µM | GI50 (U-251): 95.5 µM | GI50 (NCI-H522): 17.8 µM | GI50 [17]: > 100 µM | GI50 (SNB-75): > 100 µM | GI50 [18]: 50.1 µM | GI50 [19]: 30.2 µM | IC50 [1]: 0.1 µM | GI50 [20]: 24.5 µM | GI50 [21]: > 100 µM | GI50 [22]: 72.4 µM | GI50 (ACHN): 74.1 µM | GI50 (DU-145): > 100 µM | GI50 (NCI-H460): 41.7 µM | inhibition (Mus musculus [23]): Active | GI50 [24]: 77.6 µM | GI50 (PC-3): 43.7 µM | inhibition (Mus musculus [2]): inactive | GI50 [25]: 41.7 µM | GI50 [26]: > 100 µM | GI50 [27]: 49 µM | GI50 (SK-OV-3): 53.7 µM | GI50 (MCF7): 38 µM | GI50 [28]: 51.3 µM | GI50 [29]: 0.0447 µM | GI50 [30]: > 100 µM | GI50 [31]: > 100 µM

C#CC(O)c1ccc(-c2nn(Cc3ccccc3)c3ccccc23)o1 (centres undefined)
IC50 [1]: > 30 µM

OCc1ccc(-c2nn(Cc3c(F)c(F)c(F)c(F)c3F)c3ccccc23)o1
IC50 [1]: 0.18 µM

[N-]=[N+]=Nc1ccc(Cn2nc(-c3ccc(CO)o3)c3ccccc32)cc1
IC50 [1]: 1.24 µM

OCc1ccc(-c2nn(Cc3ccccc3)c3ccccc23)o1
GI50 (NCI-H226): 0.224 µM | CC50 (NCI-H226; read-out: pLC50 (the source's name) (converted)): 9.77 µM | TGI (NCI-H226; read-out: pTGI (converted)): 0.661 µM | IC50 [1]: 2 µM | inhibition (Mus musculus [2]): inactive | GI50 [29]: 0.158 µM | TGI ([29]; RXF 631, read-out: pTGI (converted)): 0.525 µM
